Test results: PubChem BioAssay AID1963433 (Molecular Pharmacology Branch, DTP, NCI, 2024)
One block for each compound: values may come before it.

Tested on: 772245-204-R-J1-PDC complex spheroid growth
Assay: Anticancer human tumor 772245-204-R-J1-PDC patient-derived rhabdomyosarcoma cell line growth inhibition [Asc]
Conditions: for IC50: curve of first compound; for viability, T/C: stronger effect = lower value
Summary of the method: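 Tumor cells were grown as complex spheroids with human endothelial cells (HUVEC) and human mesenchymal stem cells as stroma. Agents were tested alone and in combination, in half-log steps down from the clinical Cmax, or from 10 microM where Cmax was unknown.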

[1] = second compound 0.03 µM, first compound 0.00316 µM
[2] = second compound 0.03 µM, first compound 0.01 µM
[3] = second compound 0.03 µM, first compound 0.0316 µM
[4] = second compound 0.03 µM, first compound 0.1 µM
[5] = second compound 0.03 µM, first compound 0.316 µM
[6] = second compound 0.03 µM, first compound 1 µM
[7] = second compound 0.0949 µM, first compound 0.00316 µM
[8] = second compound 0.0949 µM, first compound 0.01 µM
[9] = second compound 0.0949 µM, first compound 0.0316 µM
[10] = second compound 0.0949 µM, first compound 0.1 µM
[11] = second compound 0.0949 µM, first compound 0.316 µM
[12] = second compound 0.0949 µM, first compound 1 µM
[13] = second compound 0.3 µM, first compound 0.00316 µM
[14] = second compound 0.3 µM, first compound 0.01 µM
[15] = second compound 0.3 µM, first compound 0.0316 µM
[16] = second compound 0.3 µM, first compound 0.1 µM
[17] = second compound 0.3 µM, first compound 0.316 µM
[18] = second compound 0.3 µM, first compound 1 µM
[19] = second compound 0.949 µM, first compound 0.00316 µM
[20] = second compound 0.949 µM, first compound 0.01 µM
[21] = second compound 0.949 µM, first compound 0.0316 µM
[22] = second compound 0.949 µM, first compound 0.1 µM
[23] = second compound 0.949 µM, first compound 0.316 µM
[24] = second compound 0.949 µM, first compound 1 µM
[25] = second compound 3 µM, first compound 0.00316 µM
[26] = second compound 3 µM, first compound 0.01 µM
[27] = second compound 3 µM, first compound 0.0316 µM
[28] = second compound 3 µM, first compound 0.1 µM
[29] = second compound 3 µM, first compound 0.316 µM
[30] = second compound 3 µM, first compound 1 µM
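Further: compound exposure lasted seven days.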
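Wherever viability, T/C is given: 100% = DMSO vehicle control viability.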

IC50 (second compound 0.03 µM): > 1000 nM
IC50 (second compound 0.0949 µM): > 1000 nM
IC50 (second compound 0.3 µM): > 1000 nM
IC50 (second compound 0.949 µM): > 1000 nM
IC50 (second compound 3 µM): > 1000 nM
SMILES: O=C(c1ccc(F)c(F)c1Nc1ccc(I)cc1F)N1CC(O)([C@@H]2CCCCN2)C1 + CCN1C(C(=O)NC23CCC(C(=O)O)(CC2)CC3)C(c2cccc(Cl)c2F)C2(C(=O)Nc3cc(Cl)ccc32)C12CCCCC2
viability, T/C [1]: 115%
viability, T/C [2]: 109%
viability, T/C [3]: 108%
viability, T/C [4]: 112%
viability, T/C [5]: 100%
viability, T/C [6]: 50.8%
viability, T/C [7]: 113%
viability, T/C [8]: 91.5%
viability, T/C [9]: 108%
viability, T/C [10]: 105%
viability, T/C [11]: 115%
viability, T/C [12]: 70.6%
viability, T/C [13]: 102%
viability, T/C [14]: 121%
viability, T/C [15]: 98.6%
viability, T/C [16]: 106%
viability, T/C [17]: 106%
viability, T/C [18]: 73.9%
viability, T/C [19]: 110%
viability, T/C [20]: 109%
viability, T/C [21]: 115%
viability, T/C [22]: 98.5%
viability, T/C [23]: 105%
viability, T/C [24]: 62.3%
viability, T/C [25]: 90.9%
viability, T/C [26]: 87.1%
viability, T/C [27]: 85.1%
viability, T/C [28]: 100%
viability, T/C [29]: 88.5%
viability, T/C [30]: 53.3%

IC50 (second compound 0.1 µM): > 100 nM
IC50 (second compound 0.316 µM): < 0.316 nM
IC50 (second compound 1 µM): < 0.316 nM
IC50 (second compound 3.16 µM): < 0.316 nM
IC50 (second compound 10 µM): < 0.316 nM
SMILES: NC1CCC(NC2CC2c2ccccc2)CC1 (stereo not given) + Cc1c(S(C)(=O)=O)c(-c2cc(F)cc(N3CCN(c4ccc(NS(=O)(=O)c5ccc(NC(CCN6CCC(C(=O)OCCCP(=O)(O)O)CC6)CSc6ccccc6)c(S(=O)(=O)C(F)(F)F)c5)cc4)CC3)c2)c(-c2ccc(Cl)cc2)n1C(C)C
viability, T/C (second compound 0.1 µM, first compound 0.000316 µM): 69.1%
viability, T/C (second compound 0.1 µM, first compound 0.001 µM): 67.9%
viability, T/C (second compound 0.1 µM, first compound 0.00316 µM): 66%
viability, T/C (second compound 0.1 µM, first compound 0.01 µM): 59.6%
viability, T/C (second compound 0.1 µM, first compound 0.0316 µM): 66.6%
viability, T/C (second compound 0.1 µM, first compound 0.1 µM): 61.2%
viability, T/C (second compound 0.316 µM, first compound 0.000316 µM): 42.7%
viability, T/C (second compound 0.316 µM, first compound 0.001 µM): 48.9%
viability, T/C (second compound 0.316 µM, first compound 0.00316 µM): 41.6%
viability, T/C (second compound 0.316 µM, first compound 0.01 µM): 38.2%
viability, T/C (second compound 0.316 µM, first compound 0.0316 µM): 38.1%
viability, T/C (second compound 0.316 µM, first compound 0.1 µM): 45.2%
viability, T/C (second compound 1 µM, first compound 0.000316 µM): 34.1%
viability, T/C (second compound 1 µM, first compound 0.001 µM): 24.2%
viability, T/C (second compound 1 µM, first compound 0.00316 µM): 22.6%
viability, T/C (second compound 1 µM, first compound 0.01 µM): 24.2%
viability, T/C (second compound 1 µM, first compound 0.0316 µM): 26.3%
viability, T/C (second compound 1 µM, first compound 0.1 µM): 24.8%
viability, T/C (second compound 3.16 µM, first compound 0.000316 µM): 24.2%
viability, T/C (second compound 3.16 µM, first compound 0.001 µM): 18.1%
viability, T/C (second compound 3.16 µM, first compound 0.00316 µM): 17.8%
viability, T/C (second compound 3.16 µM, first compound 0.01 µM): 18.7%
viability, T/C (second compound 3.16 µM, first compound 0.0316 µM): 13.7%
viability, T/C (second compound 3.16 µM, first compound 0.1 µM): 13.2%
viability, T/C (second compound 10 µM, first compound 0.000316 µM): 20.4%
viability, T/C (second compound 10 µM, first compound 0.001 µM): 18.1%
viability, T/C (second compound 10 µM, first compound 0.00316 µM): 15.8%
viability, T/C (second compound 10 µM, first compound 0.01 µM): 18.4%
viability, T/C (second compound 10 µM, first compound 0.0316 µM): 16.8%
viability, T/C (second compound 10 µM, first compound 0.1 µM): 13.2%

IC50 (second compound 0.03 µM): > 10000 nM
IC50 (second compound 0.0949 µM): > 10000 nM
IC50 (second compound 0.3 µM): > 10000 nM
IC50 (second compound 0.949 µM): > 10000 nM
IC50 (second compound 3 µM): > 10000 nM
SMILES: O=C(c1cc(Cc2n[nH]c(=O)c3ccccc23)ccc1F)N1CCN(C(=O)C2CC2)CC1 + CCN1C(C(=O)NC23CCC(C(=O)O)(CC2)CC3)C(c2cccc(Cl)c2F)C2(C(=O)Nc3cc(Cl)ccc32)C12CCCCC2
viability, T/C [3]: 102%
viability, T/C [4]: 113%
viability, T/C [5]: 93.7%
viability, T/C [6]: 95.2%
viability, T/C (second compound 0.03 µM, first compound 3.16 µM): 87.3%
viability, T/C (second compound 0.03 µM, first compound 10 µM): 70.1%
viability, T/C [9]: 108%
viability, T/C [10]: 113%
viability, T/C [11]: 97.2%
viability, T/C [12]: 100%
viability, T/C (second compound 0.0949 µM, first compound 3.16 µM): 79.7%
viability, T/C (second compound 0.0949 µM, first compound 10 µM): 72%
viability, T/C [15]: 121%
viability, T/C [16]: 115%
viability, T/C [17]: 102%
viability, T/C [18]: 93.1%
viability, T/C (second compound 0.3 µM, first compound 3.16 µM): 92%
viability, T/C (second compound 0.3 µM, first compound 10 µM): 69.2%
viability, T/C [21]: 101%
viability, T/C [22]: 92.9%
viability, T/C [23]: 99.6%
viability, T/C [24]: 88.3%
viability, T/C (second compound 0.949 µM, first compound 3.16 µM): 73.3%
viability, T/C (second compound 0.949 µM, first compound 10 µM): 63.8%
viability, T/C [27]: 77.2%
viability, T/C [28]: 80.4%
viability, T/C [29]: 84.1%
viability, T/C [30]: 74.7%
viability, T/C (second compound 3 µM, first compound 3.16 µM): 55.8%
viability, T/C (second compound 3 µM, first compound 10 µM): 62.5%

IC50 (second compound 0.03 µM): > 100 nM
IC50 (second compound 0.0949 µM): > 100 nM
IC50 (second compound 0.3 µM): > 100 nM
IC50 (second compound 0.949 µM): > 100 nM
IC50 (second compound 3 µM): > 100 nM
SMILES: Cn1ncnc1[C@H]1c2n[nH]c(=O)c3cc(F)cc(c23)N[C@@H]1c1ccc(F)cc1 + CCN1C(C(=O)NC23CCC(C(=O)O)(CC2)CC3)C(c2cccc(Cl)c2F)C2(C(=O)Nc3cc(Cl)ccc32)C12CCCCC2
viability, T/C (second compound 0.03 µM, first compound 0.000316 µM): 118%
viability, T/C (second compound 0.03 µM, first compound 0.001 µM): 106%
viability, T/C [1]: 95%
viability, T/C [2]: 85.2%
viability, T/C [3]: 86.3%
viability, T/C [4]: 81.9%
viability, T/C (second compound 0.0949 µM, first compound 0.000316 µM): 103%
viability, T/C (second compound 0.0949 µM, first compound 0.001 µM): 112%
viability, T/C [7]: 110%
viability, T/C [8]: 88.2%
viability, T/C [9]: 88.5%
viability, T/C [10]: 91.9%
viability, T/C (second compound 0.3 µM, first compound 0.000316 µM): 116%
viability, T/C (second compound 0.3 µM, first compound 0.001 µM): 115%
viability, T/C [13]: 107%
viability, T/C [14]: 95.2%
viability, T/C [15]: 93%
viability, T/C [16]: 89.6%
viability, T/C (second compound 0.949 µM, first compound 0.000316 µM): 94.2%
viability, T/C (second compound 0.949 µM, first compound 0.001 µM): 99.1%
viability, T/C [19]: 119%
viability, T/C [20]: 92.3%
viability, T/C [21]: 75.4%
viability, T/C [22]: 76.6%
viability, T/C (second compound 3 µM, first compound 0.000316 µM): 82.7%
viability, T/C (second compound 3 µM, first compound 0.001 µM): 94%
viability, T/C [25]: 75.8%
viability, T/C [26]: 65.9%
viability, T/C [27]: 70.8%
viability, T/C [28]: 62.5%
